# Measurements reported in PMC7887271, “Fast acting allosteric phosphofructokinase inhibitors block trypanosome glycolysis and cure acute African trypanosomiasis in mice” (Nature Communications, 2021).
# Several values for one entry are separate records, joined by “and”; a condition that tells them apart may be missing. Identical values can stand only once.
# Target: T1, TbPFK (Trypanosoma brucei brucei, UniProt O15648)
# T1 construct: made in house; host or cells: Escherichia coli C41 (pET28a, codon optimised gene)
# T1 sequence (O15648 1-487): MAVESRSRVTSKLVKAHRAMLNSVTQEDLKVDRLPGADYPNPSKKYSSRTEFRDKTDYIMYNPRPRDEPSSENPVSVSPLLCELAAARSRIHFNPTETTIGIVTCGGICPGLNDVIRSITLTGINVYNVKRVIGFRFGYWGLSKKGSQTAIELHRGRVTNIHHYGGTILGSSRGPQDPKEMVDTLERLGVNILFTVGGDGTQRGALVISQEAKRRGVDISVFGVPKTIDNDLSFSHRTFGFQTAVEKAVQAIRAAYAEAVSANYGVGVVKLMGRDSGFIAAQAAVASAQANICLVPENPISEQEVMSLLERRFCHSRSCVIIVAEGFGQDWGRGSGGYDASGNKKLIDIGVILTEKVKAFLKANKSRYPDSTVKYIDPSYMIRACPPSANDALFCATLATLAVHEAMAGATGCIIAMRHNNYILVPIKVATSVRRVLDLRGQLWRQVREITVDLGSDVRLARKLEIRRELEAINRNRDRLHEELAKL
# Test: ALDO/G3PDH/TIM linked enzyme assay for measuring PFK inhibition
# Format: biochemical
# Parameters: key: absorbance at 340 nm (NADH)
# Description: In the PFK/PYK/LDH assay, the linked PYK activity acts to convert the ADP produced by PFK back to ATP. As ATP is an inhibitor of human PFK (but not TbPFK) at concentrations higher than ~0.5 mM the regeneration of ATP is likely to affect the assay readout. An alternative linked assay was therefore developed using PFK/aldolase (ALDO)/glycerol-3-phosphate dehydrogenase (G3PD)/triosephosphate isomerase (TIM). In this assay F16BP produced by PFK is subsequently converted by aldolase into dihydroxyacetone phosphate (DHAP) and glyceraldehyde 3-phosphate (GA3P). TIM interconverts GA3P and DHAP, and DHAP is reduced to glycerol 3-phosphate by G3PD, alongside the oxidation of NADH to NAD^+, which was measured by observing the change in UV absorbance at 340 nm for 10 minutes at 25° C using a Spectramax© M5 Multimode plate reader.
# The assay buffer consisted of 50 mM TEA, 100 mM KCl, 10 mM MgCl2, 10% glycerol, 1 mM Tris(2-carboxyethyl)phosphine (TCEP), pH 7.4. Assay mix consisted of 5 U/ml G3PD (Sigma-Aldrich G6880), 2.5 U/ml ALDO (Sigma-Aldrich A2714), 25 U/ml TIM (Sigma-Aldrich T6258), and 1.25 mM NADH. ATP and F6P were obtained from Sigma-Aldrich (A2383 and F3627, respectively). All ligands and substrates (including ATP) were used at pH 7.4). 40 µl of assay mix, followed by 45 µl assay buffer, 4 µl of 0.1 mg/ml PFK and 1 µl of 100x serially diluted inhibitors were added to a non-binding, clear 96-well plate (Greiner Bio-One 655901) and incubated at RT for 10 minutes. The reaction was started by addition of 10 µl of 6 mM F6P (Supplementary Table 1).
structure (smiles),measurement,setting,value
CN(C)CCn1ccc2c(ccn2Cc2ccc(Cl)c(Cl)c2)c1=O [CTCB 405],TbPFK reaction time course reading (Figure 6a),"0.02 uM CTCB 405, time 0.104167",0.5676 and 0.5291
same,TbPFK reaction time course reading (Figure 6a),"0.02 uM CTCB 405, time 0.121528",0.545 and 0.5077
same,TbPFK reaction time course reading (Figure 6a),"0.02 uM CTCB 405, time 0.138889",0.5241 and 0.488
same,TbPFK reaction time course reading (Figure 6a),"0.02 uM CTCB 405, time 0.15625",0.5057 and 0.4696
same,TbPFK reaction time course reading (Figure 6a),"0.02 uM CTCB 405, time 0.173611",0.4873 and 0.4524
same,TbPFK reaction time course reading (Figure 6a),"0.02 uM CTCB 405, time 0.190972",0.4705 and 0.4366
same,TbPFK reaction time course reading (Figure 6a),"0.05 uM CTCB 405, time 0.104167",0.6118 and 0.5698
same,TbPFK reaction time course reading (Figure 6a),"0.05 uM CTCB 405, time 0.121528",0.5919 and 0.5511
same,TbPFK reaction time course reading (Figure 6a),"0.05 uM CTCB 405, time 0.138889",0.5731 and 0.5324
same,TbPFK reaction time course reading (Figure 6a),"0.05 uM CTCB 405, time 0.15625",0.5537 and 0.5159
same,TbPFK reaction time course reading (Figure 6a),"0.05 uM CTCB 405, time 0.173611",0.5368 and 0.4994
same,TbPFK reaction time course reading (Figure 6a),"0.05 uM CTCB 405, time 0.190972",0.5212 and 0.4835
same,TbPFK reaction time course reading (Figure 6a),"0.43 uM CTCB 405, time 0.104167",0.7703 and 0.7388
same,TbPFK reaction time course reading (Figure 6a),"0.43 uM CTCB 405, time 0.121528",0.7663 and 0.7359
same,TbPFK reaction time course reading (Figure 6a),"0.43 uM CTCB 405, time 0.138889",0.7635 and 0.7314
same,TbPFK reaction time course reading (Figure 6a),"0.43 uM CTCB 405, time 0.15625",0.7593 and 0.7286
same,TbPFK reaction time course reading (Figure 6a),"0.43 uM CTCB 405, time 0.173611",0.7551 and 0.7249
same,TbPFK reaction time course reading (Figure 6a),"0.43 uM CTCB 405, time 0.190972",0.7517 and 0.7206
same,TbPFK reaction time course reading (Figure 6a),"0.43 uM CTCB 405, time 0.208333",0.7473 and 0.7169
same,TbPFK reaction time course reading (Figure 6a),"1.29 uM CTCB 405, time 0.104167",0.8081 and 0.7679
same,TbPFK reaction time course reading (Figure 6a),"1.29 uM CTCB 405, time 0.121528",0.808 and 0.7688
same,TbPFK reaction time course reading (Figure 6a),"1.29 uM CTCB 405, time 0.138889",0.8069 and 0.768
same,TbPFK reaction time course reading (Figure 6a),"1.29 uM CTCB 405, time 0.15625",0.8064 and 0.7673
same,TbPFK reaction time course reading (Figure 6a),"1.29 uM CTCB 405, time 0.173611",0.8063 and 0.7675
same,TbPFK reaction time course reading (Figure 6a),"1.29 uM CTCB 405, time 0.190972",0.8048 and 0.7672
same,TbPFK reaction time course reading (Figure 6a),"3.88 uM CTCB 405, time 0.104167",0.8165 and 0.7707
same,TbPFK reaction time course reading (Figure 6a),"3.88 uM CTCB 405, time 0.121528",0.8167 and 0.7708
same,TbPFK reaction time course reading (Figure 6a),"3.88 uM CTCB 405, time 0.138889",0.8177 and 0.7708
same,TbPFK reaction time course reading (Figure 6a),"3.88 uM CTCB 405, time 0.15625",0.8174 and 0.7711
same,TbPFK reaction time course reading (Figure 6a),"3.88 uM CTCB 405, time 0.173611",0.8172 and 0.7718
same,TbPFK reaction time course reading (Figure 6a),"3.88 uM CTCB 405, time 0.190972",0.8172 and 0.7712
same,TbPFK reaction time course reading (Figure 6a),"11.66 uM CTCB 405, time 0.104167",0.818 and 0.7732
same,TbPFK reaction time course reading (Figure 6a),"11.66 uM CTCB 405, time 0.121528",0.8194 and 0.7744
same,TbPFK reaction time course reading (Figure 6a),"11.66 uM CTCB 405, time 0.138889",0.8194 and 0.7745
same,TbPFK reaction time course reading (Figure 6a),"11.66 uM CTCB 405, time 0.15625",0.8194 and 0.7742
same,TbPFK reaction time course reading (Figure 6a),"11.66 uM CTCB 405, time 0.173611",0.8203 and 0.7754
same,TbPFK reaction time course reading (Figure 6a),"11.66 uM CTCB 405, time 0.190972",0.82 and 0.776
same,TbPFK reaction time course reading (Figure 6a),"35 uM CTCB 405, time 0.104167",0.7782 and 0.7773
same,TbPFK reaction time course reading (Figure 6a),"35 uM CTCB 405, time 0.121528",0.7782 and 0.776
same,TbPFK reaction time course reading (Figure 6a),"35 uM CTCB 405, time 0.138889",0.7789 and 0.7774
same,TbPFK reaction time course reading (Figure 6a),"35 uM CTCB 405, time 0.15625",0.7788 and 0.7781
same,TbPFK reaction time course reading (Figure 6a),"35 uM CTCB 405, time 0.173611",0.779 and 0.7789
same,TbPFK reaction time course reading (Figure 6a),"35 uM CTCB 405, time 0.190972",0.7794 and 0.7785
